For one assay, the target named is T1, Human P2Y12 receptor (Homo sapiens, UniProt Q9H244).
T1 construct: expressed in transfected cells; host or cells: HEK cells
In words: Human P2Y12 receptor cell membrane binding assay with [3H] 2-Mes-ADP. Conditions: 1 nM [3H] 2-Mes-ADP, membranes of HEK cells expressing P2Y12 receptor; read-out: Binding activity (IC50). The procedure, abridged:
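Membranes from HEK cells expressing human P2Y12 were incubated with compound and 1 nM [3H]2-MeS-ADP for 1 h at room temperature. Bound radioactivity was collected by GF/B filtration.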

The test system of assay [1] is Human platelet aggregation caused by ADP. As to the kind of experiment: Inhibition of ADP-induced platelet aggregation (Mimic-human PRP). The format is cell-based. Conditions: 20 μM ADP, human platelet concentrate diluted with PPP, absorption at 595 nm. The procedure, abridged:
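Human PRP diluted with PPP to 3–4×10^8 platelets/mL was preincubated 20 min at room temperature with compound (0.01–30 μM, DMSO), then stimulated with 20 μM ADP. Aggregation read as A595 increase at 3 min versus 0 and 20 μM ADP controls; Ki from sigmoidal non-linear regression.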

Structures are written as SMILES.

Data on 24 compounds can be found in patent US20110166121A1 (LG LIFE SCIENCES LTD., priority 2008, published 2011).

T1 sequence (Q9H244 whole entry): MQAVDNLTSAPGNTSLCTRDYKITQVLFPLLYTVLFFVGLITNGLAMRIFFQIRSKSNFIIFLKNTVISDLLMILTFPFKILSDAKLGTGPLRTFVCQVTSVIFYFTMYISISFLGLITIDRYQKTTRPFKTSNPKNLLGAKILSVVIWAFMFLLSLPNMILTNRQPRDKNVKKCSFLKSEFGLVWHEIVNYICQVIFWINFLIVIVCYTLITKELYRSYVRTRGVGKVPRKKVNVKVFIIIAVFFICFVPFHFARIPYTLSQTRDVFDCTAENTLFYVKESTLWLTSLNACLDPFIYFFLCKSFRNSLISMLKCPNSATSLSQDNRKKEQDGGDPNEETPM

On to `CCCc1cc2c(N3CCn4c(nnc4C(F)(F)F)C3)nc(OCCNC(=O)COC)nc2s1` [Example 3-63, 2-Methoxy-N-{2-[6-propyl-4-(3-trifluoromethyl-5,6-dihydro-8H-[1,2,4]triazolo[4,3-a]pyrazin-7-yl)-thieno[2,3-d]pyrimidin-2-yloxy]-ethyl}-acetamide], for which, on Human P2Y12 receptor, the IC50 stood at 43 nM. In assay [1], the Ki was found to be 7 nM.

For the compound `CCCc1cc2c(N3CCn4c(nnc4C(F)(F)F)C3)nc(-n3ccc4ccccc43)nc2s1` [Example 1-73, 7-(2-Indol-1-yl-6-propyl-thieno[2,3-d]pyrimidin-4-yl)-3-trifluoromethyl-5,6,7,8-tetrahydro-[1,2,4]triazolo[4,3-a]pyrazine], the IC50 on Human P2Y12 receptor is 360 nM. For the same compound, in assay [1], the Ki is above 4000 nM.

As to `CCCc1cc2c(N3CCn4c(nnc4C(F)(F)F)C3)nc(-c3nnc(CO)o3)nc2s1` [Example 4-36, {5-[6-Propyl-4-(3-trifluoromethyl-5,6-dihydro-8H-[1,2,4]triazolo[4,3-a]pyrazin-7-yl)thieno[2,3-d]pyrimidin-2-yl]-[1,3,4]oxadiazol-2-yl}methanol], on Human P2Y12 receptor, the half-inhibitory concentration (IC50) is 250 nM. The compound further gave a Ki in assay [1] of 300 nM.

Regarding `CCCc1cc2c(N3CCn4c(nnc4C(F)(F)F)C3)nc(Oc3ccc(N4CCNCC4)cc3)nc2s1` [Example 3-46, 7-[2-(4-piperazin-1-yl-phenoxy)-6-propyl-thieno[2,3-d]pyrimidin-4-yl]-3-trifluoromethyl-5,6,7,8-tetrahydro-[1,2,4]triazolo[4,3-a]pyrazine], the IC50 at Human P2Y12 receptor worked out at 2330 nM. The compound further registered a Ki in assay [1] above 4000 nM.

`CCCc1cc2c(N3CCn4c(nnc4C(F)(F)F)C3)nc(N3CCN(S(=O)(=O)CC)CC3)nc2s1` [Example 1-8, 7-[2-(4-Ethanesulfonyl-piperazin-1-yl)-6-propyl-thieno[2,3-d]pyrimidin-4-yl]-3-trifluoromethyl-5,6,7,8-tetrahydro-[1,2,4]triazolo[4,3-a]pyrazine]: on Human P2Y12 receptor, the IC50 came to 56 nM. The Ki in assay [1] is 300 nM.

Consider `CCCc1cc2c(N3CCn4c(nnc4C(F)(F)F)C3)nc(Oc3ccc(CC(=O)OC)cc3)nc2s1` [Example 3-39, {4-[6-Propyl-4-(3-trifluoromethyl-5,6-dihydro-8H-[1,2,4]triazolo[4,3-a]pyrazin-7-yl)-thieno[2,3-d]pyrimidin-2-yloxy]-phenyl}-acetic acid methyl ester], for which the IC50 on Human P2Y12 receptor was found to be 300 nM. This compound registered a Ki in assay [1] of 2400 nM.

On to `CCCc1cc2c(N3CCn4c(nnc4C(F)(F)F)C3)nc(N3CC[C@H](NC(=O)c4ccccn4)C3)nc2s1` [Example 1-111, Pyridine-2-carboxylic Acid {(S)-1-[6-propyl-4-(3-trifluoromethyl-5,6-dihydro-8H-[1,2,4]triazolo[4,3-a]pyrazin-7-yl)-thieno[2,3-d]pyrimidin-2-yl]-pyrrolidin-3-yl}-amide], for which, on Human P2Y12 receptor, the IC50 came out at 150 nM. In assay [1], this compound yielded a Ki of 590 nM.

As to `CCCc1cc2c(N3CCn4c(nnc4C(F)(F)F)C3)nc(N3CCC[C@H]3C(=O)OCOC(=O)C(C)(C)C)nc2s1` [Example 1-52, (S)-1-[6-Propyl-4-(3-trifluoromethyl-5,6-dihydro-8H-[1,2,4]triazolo[4,3-a]pyrazin-7-yl)-thieno[2,3-d]pyrimidin-2-yl]-pyrrolidine-2-carboxylic acid 2,2-dimethyl-propionyloxymethyl ester], the IC50 on Human P2Y12 receptor was found to be 1030 nM. Besides, the inhibition constant Ki in assay [1] is above 4000 nM.

Take `CCCc1cc2c(N3CCn4c(nnc4C(F)(F)F)C3)nc(N3CCN(c4ccc(O)cc4)CC3)nc2s1` [Example 1-38, 4-{4-[6-Propyl-4-(3-trifluoromethyl-5,6-dihydro-8H-[1,2,4]triazolo[4,3-a]pyrazin-7-yl)-thieno[2,3-d]pyrimidin-2-yl]-piperazin-1-yl}-phenol]: the IC50 on Human P2Y12 receptor was 100 nM. Also, the affinity in assay [1], expressed as Ki, was 180 nM.

On to `CCCc1cc2c(N3CCn4c(nnc4C(F)(F)F)C3)nc(OC3CCCC3)nc2s1` [Example 3-15, 7-(2-Cyclopentyloxy-6-propyl-thieno[2,3-d]pyrimidin-4-yl)-3-trifluoromethyl-5,6,7,8-tetrahydro-[1,2,4]triazolo[4,3-a]pyrazine], for which, at Human P2Y12 receptor, the IC50 was 53 nM. In assay [1], this compound came in with a Ki of 300 nM.

`CCCc1cc2c(N3CCn4c(nnc4C(F)(F)F)C3)nc(-c3nc(CC)no3)nc2s1` [Example 4-27, 7-[2-(3-Ethyl-[1,2,4]oxadiazol-5-yl)-6-propyl-thieno[2,3-d]pyrimidin-4-yl]-3-trifluoromethyl-5,6,7,8-tetrahydro-[1,2,4]triazolo[4,3-a]pyrazine]: the IC50 at Human P2Y12 receptor was determined as 130 nM. For the same compound, in assay [1], the affinity corresponds to a Ki of 1500 nM.

`CCCc1cc2c(N3CCn4c(nnc4C(F)(F)F)C3)nc(Oc3ccc(C=O)cc3)nc2s1` [Example 3-47, 4-[6-Propyl-4-(3-trifluoromethyl-5,6-dihydro-8H-[1,2,4]triazolo[4,3-a]pyrazin-7-yl)-thieno[2,3-d]pyrimidin-2-yloxy]-benzaldehyde]: the IC50 on Human P2Y12 receptor was determined as 375 nM. The Ki in assay [1] is above 4000 nM.

Consider `CCCc1cc2c(N3CCn4c(nnc4C(F)(F)F)C3)nc(OCC(=O)OC)nc2s1` [Example 3-8, [6-Propyl-4-(3-trifluoromethyl-5,6-dihydro-8H-[1,2,4]triazolo[4,3-a]pyrazin-7-yl)-thieno[2,3-d]pyrimidin-2-yloxy]-acetic acid methyl ester], for which, at Human P2Y12 receptor, the IC50 came out at 331 nM. This compound displayed a Ki in assay [1] of 610 nM.

With `CCCc1cc2c(N3CCn4c(nnc4C(F)(F)F)C3)nc(N3CCc4cc(OC)c(OC)cc4C3)nc2s1` [Example 1-66, 6,7-Dimethoxy-2-[6-propyl-4-(3-trifluoromethyl-5,6-dihydro-8H-[1,2,4]triazolo[4,3-a]pyrazin-7-yl)-thieno[2,3-d]pyrimidin-2-yl]-1,2,3,4-tetrahydro-isoquinoline], the IC50 at Human P2Y12 receptor was 200 nM. The Ki in assay [1] stood at 1400 nM.

Consider `CCCc1nc2c(N3CCn4c(nnc4C(F)(F)F)C3)nc(N3CC[C@H](N)C3)nc2s1` [Example 5-5, (S)-1-[2-Propyl-7-(3-trifluoromethyl-5,6-dihydro-8H-[1,2,4]triazolo[4,3-a]pyrazin-7-yl)-thiazolo[5,4-d]pyrimidin-5-yl]-pyrrolidin-3-ylamine], for which, on Human P2Y12 receptor, the IC50 worked out at 170 nM. The same compound showed a Ki in assay [1] of 25 nM.

As for `CCCc1cc2c(N3CCn4c(nnc4C(F)(F)F)C3)nc(Oc3cccnc3)nc2s1` [Example 3-29, 7-[6-Propyl-2-(pyridin-3-yloxy)-thieno[2,3-d]pyrimidin-4-yl]-3-trifluoromethyl-5,6,7,8-tetrahydro-[1,2,4]triazolo[4,3-a]pyrazine], on Human P2Y12 receptor, the IC50 came out at 220 nM. Also, in assay [1], the Ki amounted to 150 nM.

Turning to `CCCc1cc2c(N3CCn4c(nnc4C(F)(F)F)C3)nc(N3CCCC(O)C3)nc2s1` (stereo not drawn) [Example 1-27, 1-[6-Propyl-4-(3-trifluoromethyl-5,6-dihydro-8H-[1,2,4]triazolo[4,3-a]pyrazin-7-yl)-thieno[2,3-d]pyrimidin-2-yl]-piperidin-3-ol], the IC50 on Human P2Y12 receptor amounted to 56 nM. The compound also had a Ki in assay [1] of 72 nM.

As to `CCCc1cc2c(N3CCn4c(nnc4C(F)(F)F)C3)nc(-c3nc(-c4ccccc4)no3)nc2s1` [Example 4-28, 7-[2-(3-Phenyl-[1,2,4]oxadiazol-5-yl)-6-propyl-thieno[2,3-d]pyrimidin-4-yl)-3-trifluoromethyl-5,6,7,8-tetrahydro-[1,2,4]triazolo[4,3-a]pyrazine], the IC50 on Human P2Y12 receptor was 330 nM. The Ki in assay [1] turned out to be 670 nM.

With `CCCc1cc2c(N3CCn4c(nnc4C(F)(F)F)C3)nc(OCCNC(=O)CS(C)(=O)=O)nc2s1` [Example 3-66, 2-Methanesulfonyl-N-{2-[6-propyl-4-(3-trifluoromethyl-5,6-dihydro-8H-[1,2,4]triazolo[4,3-a]pyrazin-7-yl)-thieno[2,3-d]pyrimidin-2-yloxy]-ethyl}-acetamide], at Human P2Y12 receptor, the IC50 was found to be 150 nM. This compound also gave a Ki in assay [1] of 70 nM.

In the case of `CCCc1cc2c(N3CCn4c(nnc4C(F)(F)F)C3)nc(-c3nc(CO)cs3)nc2s1` [Example 4-50, {2-[6-Propyl-4-(3-trifluoromethyl-5,6-dihydro-8H-[1,2,4]triazolo[4,3-a]pyrazin-7-yl)thieno[2,3-d]pyrimidin-2-yl]thiazol-4-yl}methanol], the IC50 on Human P2Y12 receptor stood at 57 nM. The compound further showed a Ki in assay [1] of 34 nM.

Consider `CCCc1cc2c(N3CCn4c(nnc4C(F)(F)F)C3)nc(N3CCN(C(=O)OCC)CC3)nc2s1` [Example 1-7, 4-[6-Propyl-4-(3-trifluoromethyl-5,6-dihydro-8H-[1,2,4]triazolo[4,3-a]pyrazin-7-yl)-thieno[2,3-d]pyrimidin-2-yl]-piperazine-1-carboxylic acid ethyl ester], for which, at Human P2Y12 receptor, the IC50 was 220 nM. Further, in assay [1], the affinity corresponds to a Ki of 770 nM.

For the compound `CCCc1cc2c(N3CCn4c(nnc4C(F)(F)F)C3)nc(N3CC[C@H](NC(=O)CC#N)C3)nc2s1` [Example 1-103, 2-Cyano-N-{(S)-1-[6-propyl-4-(3-trifluoromethyl-5,6-dihydro-8H-[1,2,4]triazolo[4,3-a]pyrazin-7-yl)-thieno[2,3-d]pyrimidin-2-yl]-pyrrolidin-3-yl}-acetamide], at Human P2Y12 receptor, the IC50 worked out at 50 nM. This compound also had a Ki in assay [1] of 6.6 nM.

As for `CCCc1cc2c(N3CCn4c(nnc4C(F)(F)F)C3)nc(Oc3cccc(C#N)c3)nc2s1` [Example 3-37, 3-[6-Propyl-4-(3-trifluoromethyl-5,6-dihydro-8H-[1,2,4]triazolo[4,3-a]pyrazin-7-yl)-thieno[2,3-d]pyrimidin-2-yloxy]-benzonitrile], the IC50 at Human P2Y12 receptor was determined as 198 nM. Also, the Ki in assay [1] was determined as 1300 nM.

For `CCCc1cc2c(N3CCn4c(nnc4C(F)(F)F)C3)nc(-c3nnn[nH]3)nc2s1` [Example 4-44, 7-[6-Propyl-2-(1H-tetrazol-5-yl)-thieno[2,3-d]pyrimidin-4-yl]-3-trifluoromethyl-5,6,7,8-tetrahydro-[1,2,4]triazolo[4,3-a]pyrazine], the IC50 at Human P2Y12 receptor is 1600 nM. In assay [1], this compound had a Ki above 4000 nM.
